The experiment deals with recombinant human α-thrombin (Homo sapiens, UniProt P00734). Kind of experiment: Thrombin amidolytic activity on S2238 with recombinant thrombin. To be noted: 50 mM Tris pH 7.4, 100 mM NaCl, 1 mg/ml BSA, room temperature, 405 nm, read-out: Michaelis-Menten constant (Km) of S2238 for thrombin. The experiment is classed as biochemical.

As to `NC(N)=NCCC[C@H](NC(=O)[C@@H]1CCCCN1C(=O)[C@H](N)Cc1ccccc1)C(=O)Nc1ccc([N+](=O)[O-])cc1` [S2238, H-D-Phe-pipecolyl-Arg-pNA•2HCl], the Km amounted to 3.25 ± 0.56 µM.

(Values after PMC3203879 (PLoS ONE, 2011).)
